Measured values published in PubChem BioAssay AID248 (DTP/NCI, 2004).
“And” between values parts separate entries of the source, which are not always exact repeats. Equal values may be shown once. Inconclusive results and toxic doses are left out.

Test system: L1210 leukemia ip in BDF1 mice, survival T/C
Assay: NCI In Vivo Anticancer Drug Screen. Data for tumor model L1210 Leukemia (intraperitoneal) in B6D2F1 (BDF1) mice
Conditions: endpoint: mean survival time, higher = longer survival
Method in brief: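 Transplantable tumor model; survival measured in treated vs vehicle control mice. Value = treated/control.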

[1] = dose: 100.0 mg/kg/injection, schedule: Q01DX009 (ip), vehicle: saline with Tween-80
[2] = dose: 200.0 mg/kg/injection, schedule: Q01DX009 (ip), vehicle: saline with Tween-80
[3] = dose: 100.0 mg/kg/injection, schedule: Q04DX003 (ip), vehicle: saline with Tween-80
[4] = dose: 200.0 mg/kg/injection, schedule: Q04DX003 (ip), vehicle: saline with Tween-80
[5] = dose: 400.0 mg/kg/injection, schedule: Q01DX009 (ip), vehicle: saline with Tween-80
[6] = dose: 400.0 mg/kg/injection, schedule: Q04DX003 (ip), vehicle: saline with Tween-80
[7] = dose: 100.0 mg/kg/injection, schedule: Q04DX002 (ip), vehicle: Klucel (hydroxypropylcellulose) (HPC)
[8] = dose: 100.0 mg/kg/injection, schedule: Q04DX003 (ip), vehicle: saline

Nc1ccc2c(c1)C1(NC(=O)NC1=O)c1cc(N)ccc1-2
T/C (dose: 50.0 mg/kg/injection, schedule: Q01DX001 (ip), vehicle: carboxymethylcellulose (CMC)): 101 % of control | T/C (dose: 100.0 mg/kg/injection, schedule: Q01DX001 (ip), vehicle: carboxymethylcellulose (CMC)): 101 % of control | T/C (dose: 200.0 mg/kg/injection, schedule: Q01DX001 (ip), vehicle: carboxymethylcellulose (CMC)): 109 % of control | T/C (dose: 400.0 mg/kg/injection, schedule: Q01DX001 (ip), vehicle: carboxymethylcellulose (CMC)): 103 % of control

CNC(=N)c1ccc(NC(=N)c2ccc(NC(=N)c3ccc(NC(=O)c4ccc(C(=N)NC)cc4)cc3)cc2)cc1
T/C (dose: 3.75 mg/kg/injection, schedule: Q01DX015 (ip), vehicle: water): 104 % of control | T/C (dose: 7.5 mg/kg/injection, schedule: Q01DX015 (ip), vehicle: water): 101 % of control | T/C (dose: 15.0 mg/kg/injection, schedule: Q01DX015 (ip), vehicle: water): 108 % of control | T/C (dose: 20.0 mg/kg/injection, schedule: Q01DX Z (ip), vehicle: water): 177 % of control | T/C (dose: 30.0 mg/kg/injection, schedule: Q01DX015 (ip), vehicle: water): 176 % of control and 180 % of control | T/C (dose: 50.0 mg/kg/injection, schedule: Q01DX015 (ip), vehicle: water): 97 % of control

CCCNC(=O)Nc1ccc(C(=O)OCC(C)C)cc1
T/C [1]: 95 % of control | T/C [2]: 93 % of control

CSC(=O)Oc1ccc([N+](=O)[O-])cc1
T/C [1]: 106 % of control | T/C [3]: 104 % of control | T/C [2]: 96 % of control | T/C [4]: 100 % of control | T/C [5]: 101 % of control | T/C [6]: 91 % of control

Cc1cc(S(=O)(=O)O)c(N)cc1Cl
T/C [3]: 99 % of control | T/C [4]: 97 % of control | T/C [6]: 100 % of control

O=C(Nc1cccc(C(F)(F)F)c1)c1ccc(F)cc1
T/C [7]: 91 % of control | T/C (dose: 200.0 mg/kg/injection, schedule: Q04DX002 (ip), vehicle: Klucel (hydroxypropylcellulose) (HPC)): 102 % of control | T/C (dose: 400.0 mg/kg/injection, schedule: Q04DX002 (ip), vehicle: Klucel (hydroxypropylcellulose) (HPC)): 88 % of control

Cc1cc([N+](=O)[O-])cc(S(=O)(=O)O)c1C
T/C (dose: 50.0 mg/kg/injection, schedule: Q01DX009 (ip), vehicle: saline with Tween-80): 102 % of control | T/C [1]: 98 % of control and 92 % of control | T/C [2]: 98 % of control and 106 % of control | T/C [5]: 98 % of control

NC(=S)N/N=C1/C(=O)c2cccc3cccc1c23
T/C (dose: 75.0 mg/kg/injection, schedule: Q01DX001 (ip), vehicle: other): 96 % of control

O=[N+]([O-])c1ccc(C2CCCCC2)cc1
T/C (dose: 25.0 mg/kg/injection, schedule: Q04DX002 (ip), vehicle: Klucel (hydroxypropylcellulose) (HPC)): 109 % of control | T/C (dose: 50.0 mg/kg/injection, schedule: Q04DX002 (ip), vehicle: Klucel (hydroxypropylcellulose) (HPC)): 109 % of control | T/C [7]: 102 % of control

Nc1[nH]c(=S)[nH]c(=O)c1NC(=O)C1CC1
T/C [8]: 96 % of control | T/C (dose: 200.0 mg/kg/injection, schedule: Q04DX003 (ip), vehicle: saline): 105 % of control | T/C (dose: 400.0 mg/kg/injection, schedule: Q04DX003 (ip), vehicle: saline): 102 % of control

Cc1ccc(/C=N/NC(N)=S)nn1
T/C (dose: 100.0 mg/kg/injection, schedule: Q04DX002 (ip), vehicle: saline): 117 % of control | T/C (dose: 200.0 mg/kg/injection, schedule: Q04DX002 (ip), vehicle: saline): 98 % of control

CC(=O)c1ccccc1C
T/C (dose: 100.0 mg/kg/injection, schedule: Q01DX001 (ip), vehicle: saline): 104 % of control | T/C (dose: 200.0 mg/kg/injection, schedule: Q01DX001 (ip), vehicle: saline): 112 % of control

OC1C2c3ccccc3C(c3c2cc(F)c2ccccc32)C1O (stereo not given)
T/C (dose: 37.5 mg/kg/injection, schedule: Q01DX001 (ip), vehicle: Klucel (hydroxypropylcellulose) (HPC)): 102 % of control | T/C (dose: 75.0 mg/kg/injection, schedule: Q01DX001 (ip), vehicle: Klucel (hydroxypropylcellulose) (HPC)): 96 % of control | T/C (dose: 150.0 mg/kg/injection, schedule: Q01DX001 (ip), vehicle: Klucel (hydroxypropylcellulose) (HPC)): 104 % of control

CCC[As](=O)(O)CCC
T/C (dose: 25.0 mg/kg/injection, schedule: Q01DX009 (ip), vehicle: saline): 107 % of control | T/C (dose: 50.0 mg/kg/injection, schedule: Q01DX009 (ip), vehicle: saline): 112 % of control | T/C [8]: 111 % of control
